Like-named read-outs stand apart in the source and are kept apart here.
Tests used:
[1] = Retinol stability in the presence of boosters (OD 360 nm); format: physicochemical; settings: booster approximately 0.1%, 60 hours at room temperature in the dark, approx. 50% aqueous ethanol
Procedure: Retinol (50% in tween 80) was dissolved in approximately 50% aqueous ethanol to provide a solution giving an OD at 360 nm of approximately 0.6 when measured in a 200 μl volume in a 96 well plate using a standard 96 well spectrophotometer.
Booster molecules were added at approximately 0.1% concentration and the OD 360 measured as above immediately and after 60 hours at room temperature in the dark. A correction was applied to the OD after 60 hours (divide by 0.85) to account for increased concentration of the retinol due to evaporation of solvent from the plate.

[2] = biological target: TGase I; experiment: Transglutaminase (TGase I ELISA) assay in cultured keratinocytes; format: cell-based; settings: for IC50: booster in combination with a constant retinol concentration of 10^−7M, read-out: Overall TG (IC 50); for % Inhibition Overall TG (−ROH/RE): added effect of booster+retinol induced TGase inhibition over retinol alone
[3] = system: Retinal Reductase; experiment: Assay for Retinal Reductase Activity, liver microsomes; format: biochemical, rat; settings: test compound final 100 μM (method)
[4] = system: ARAT; experiment: Assay for ARAT activity, RPE microsomes; format: biochemical, bovine; settings: for % Inhibition ARAT (100 μm): 100 μm compound
[5] = Retinol stability in the presence of phytoestrogenic flavonoids (OD 360 nm); format: physicochemical
Procedure: Retinol was dissolved as a 10% solution in aqueous ethanol (1:1 water:ethanol). This solution was diluted to 0.001% approximately 30 μM). This solution gave an OD of about 0.35 absorption unit at 360 nm in a 96 well plate spectrophotometer.
Aqueous ethanolic stock solutions of the genistein, daidzein were prepared as 0.1%, 0.01% or 0.001%. To 200 μl of 0.001% retinol solution in a 96 well plate was added 20 μl of the flavonoid (i.e. 1-10 dilution) giving a final flavonoid concentration of 0.01, 0.001 and 0.0001%. The plates were mixed and an initial OD reading was taken at 360 nm. The plates were incubated at room temperature in the dark for up to 2 days and subsequent readings were taken at 8, 24 and 48 hours. The OD readings at these time points were normalized to the 0 time point reading. The retinol stability was expressed as % of retinol (OD reading) at 0 time. The data is shown in example 5.
Example 5: The following tables show the effect of genistein and daidzein on destabilizing retinol. The experiment was done as described in methods section. The OD readings from duplicate measurements were averaged and given here.

[6] = system: CRABP-II; experiment: CRABP-II expression in adult fibroblasts (dot blot); format: cell-based, human; settings: for CRABP-II production / % as Control: 1 μM phytoestrogen alone; for % as Control: control as 100%
[7] = system: retinoic acid oxidation (cytochrome P450 systems); experiment: Assay for NADPH Dependent Retinoic Acid Oxidation, liver microsomes; format: biochemical, rat; settings: for % Inhibition Retinoic Acid (10 μM): 10 μM compound; for % Inhibition Retinoic Acid (100 μM): 100 μM compound
[8] = biological target: T1, LRAT (Bos taurus, UniProt Q9BGL2); experiment: Assay for LRAT activity, RPE microsomes; format: biochemical, bovine
T1 construct: followed by approximately 15 μg of RPE microsomal protein; tissue W. L. Lawson Co., Lincoln, Nebr; host or cells: bovine retinal pigment epithelium microsomes
T1 sequence (Q9BGL2 1-230): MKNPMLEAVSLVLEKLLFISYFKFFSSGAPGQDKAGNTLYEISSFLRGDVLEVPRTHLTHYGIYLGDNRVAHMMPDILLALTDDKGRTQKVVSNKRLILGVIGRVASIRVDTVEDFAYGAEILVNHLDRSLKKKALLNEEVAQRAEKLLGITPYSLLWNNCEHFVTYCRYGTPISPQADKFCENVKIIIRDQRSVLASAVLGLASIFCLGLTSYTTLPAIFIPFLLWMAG

[9] = system: Retinol Dehydrogenase; experiment: Assay for Retinol Dehydrogenase Activity, liver microsomes; format: biochemical, rat; settings: test compound final 100 μM (method)
Procedure: 2.2 Isolation of rat liver microsomes (modified from R. Martini & M. Murray, “Participation of P450 3A Enzymes in Rat Hepatic Microsomal Renitoic Acid 4-Hydroxylation”, Archives Biochem. Biophys. 303, 57-66 (1993)).
The resulting homogenate was successively centrifuged for 30 min. at 10,000 g, 30 min. at 20,000 g, and 15 min. at 30,000 g, and the resulting supernatant was ultracentrifuged for 80 min. at 105,000 g. […] Protein concentrations were determined as described above.
2.4 Assay for Retinol Dehydrogenase Activity (To identify B2)
The following stock solutions were prepared:
50 mM KH2PO4, pH 7.4 buffer, sterile filtered.
10 mM all trans Retinol (Sigma R7632) in DMSO.
200 mM Nicotinamide adenine dinucleotide phosphate, sodium salt (NADP) (Sigma N0505) in sterile water.
40 mM test compound in appropriate solvent (water, buffer, ethanol, chloroform or DMSO).
1:10 dilution of rat liver Microsomes in 50 mM KH2PO4, pH 7.4 buffer (4 ug/ul).
In a two-dram glass vial with screw cap, add the following in order:
Buffer to give a final volume of 400 μl […]
Aliquots of 60 μL were injected immediately and analyzed for retinoid content.
The chromatography instrumentation consisted of a Waters 600 gradient controller/pump, a Waters 996 Photodiode Array detector and a Waters 474 Scanning Fluorescence detector. […] The eluate was monitored for absorbance at 325 nm and fluorescence at 325 ex/480 em. […]

Compound: Oc1cccc2cccnc12 [8 OH QUINOLINE]
- FOLD INCREASE IN RATE OF RETINOL LOSS [1]: 1.5 fold

Compound: CC(=O)/C=C/C1C(C)=CCCC1(C)C (stereo not drawn) [Alpha=Ionone]
- FOLD INCREASE IN RATE OF RETINOL LOSS [1]: 1.3 fold
- IC50 [2]: 927 µM

Compound: O=c1ccc2ccccc2o1 [COUMARIN]
- FOLD INCREASE IN RATE OF RETINOL LOSS [1]: 1.4 fold

Compound: CC1(C)[C@@H](OC(=O)CCC(=O)O)CC[C@]2(C)[C@H]3C(=O)C=C4[C@@H]5C[C@@](C)(C(=O)O)CC[C@]5(C)CC[C@@]4(C)[C@]3(C)CC[C@@H]12 [Carbenoxolone, reference compound]
- % Inhibition Retinal Reductase [3]: 26% +/− 2

Compound: CC(C)=CCCC(C)=CC=O [Citral]
- FOLD INCREASE IN RATE OF RETINOL LOSS [1]: 3.1 fold
- % Inhibition ARAT (100 μm) [4]: 20%

Compound: O=c1c(-c2ccc(O)cc2)coc2cc(O)ccc12 [Daidzein]
- Retinol stability, % of retinol (OD reading) at 0 time ([5]; 8 h, 0.0001 %): 82%
- Retinol stability, % of retinol (OD reading) at 0 time ([5]; 24 h, 0.0001 %): 78%
- Retinol stability, % of retinol (OD reading) at 0 time ([5]; 48 h, 0.0001 %): 76%
- CRABP-II production [6]: 1.49+/−0.66
- % as Control [6]: 513+/−227%

Compound: CN1CCN(C)C1=O [Dimethyl Imidazolidinone]
- FOLD INCREASE IN RATE OF RETINOL LOSS [1]: 1.4 fold
- % Inhibition Overall TG (−ROH/RE) [2]: 22%

Compound: O=c1c(-c2ccc(O)cc2)coc2cc(O)cc(O)c12 [Genistein]
- effect of flavonoid on instability of retinol ([5]; up to 48 hours): marked increases in the instability of retinol
- stimulation of CRABP-II ([6]; 1 μM alone): stimulated CRABP-II significantly
- CRABP-II production [6]: 1.9+/−0.71
- % as Control [6]: 655+/−247%

Compound: CC(C)=CCC/C(C)=C/CO [Geraniol]
- FOLD INCREASE IN RATE OF RETINOL LOSS [1]: 1.3 fold
- % Inhibition ARAT (10 μm) ([4]; 10 μm compound): 13%
- % Inhibition ARAT (100 μm) [4]: 32%

Compound: CC1(C)[C@@H](O)CC[C@]2(C)[C@H]3C(=O)C=C4[C@@H]5C[C@@](C)(C(=O)O)CC[C@]5(C)CC[C@@]4(C)[C@]3(C)CC[C@@H]12 [Glycyrretinic Acid]
- FOLD INCREASE IN RATE OF RETINOL LOSS [1]: 1.6 fold
- IC50 ([2]; Keratinocyte): 8.64 µM

Compound: CC(=O)N1CCN(c2ccc(OCC3COC(Cn4ccnc4)(c4ccc(Cl)cc4Cl)O3)cc2)CC1 (stereo not drawn) [Ketoconazole]
- % Inhibition Retinoic Acid (10 μM) [7]: 84%
- % Inhibition Retinoic Acid (100 μM) [7]: 84%

Compound: CCCCCCCCCCCC(=O)N(C)CC(=O)O [Lauroyl Sarcosine]
- FOLD INCREASE IN RATE OF RETINOL LOSS [1]: 2.6 fold
- % Inhibition ARAT (100 μm) [4]: 20%

Compound: CCCCC/C=C\C/C=C\CCCCCCCC(=O)O [Linoleic Acid]
- % Inhibition Retinal Reductase [3]: 62% +/− 2
- FOLD INCREASE IN RATE OF RETINOL LOSS [1]: 3.4 fold

Compound: CCCCC/C=C\C/C=C\CCCCCCCC(=O)N(CCO)CCO [Linoleoyl Diethanolamide]
- FOLD INCREASE IN RATE OF RETINOL LOSS [1]: 3.0 fold
- % Inhibition Overall TG (−ROH/RE) [2]: 59%
- % Inhibition LRAT (10 μm) ([8]; 10 μm compound): 11% +/− 9
- % Inhibition LRAT (100 μm) ([8]; 100 μm compound): 51% +/− 15

Compound: Clc1ccc(COC(Cn2ccnc2)c2ccc(Cl)cc2Cl)c(Cl)c1 (stereo not drawn) [Miconazole]
- % Inhibition Retinoic Acid (10 μM) [7]: 74%
- % Inhibition Retinoic Acid (100 μM) [7]: 86%

Compound: CCCCCCCCCCCCCC(=O)O [Myristic Acid]
- % Inhibition Retinal Reductase [3]: 26%

Compound: O=c1c(O)c(-c2ccc(O)c(O)c2)oc2cc(O)cc(O)c12 [Quercetin]
- % Inhibition Retinoic Acid (10 μM) [7]: 40%
- % Inhibition Retinoic Acid (100 μM) [7]: 74%

Compound: CC1=C(/C=C/C(C)=C/C=C/C(C)=C/CO)C(C)(C)CCC1 [Retinol]
- retinol degraded ([5]; 8 h, 0.001 %): 8%
- Retinol stability, % of retinol (OD reading) at 0 time ([5]; 24 h, 0.001 %): 86%
- retinol degraded ([5]; 24 h, 0.001 %): 14%
- Retinol stability, % of retinol (OD reading) at 0 time ([5]; 48 h, 0.001 %): 81%
- retinol degraded ([5]; 48 h, 0.001 %): 19%

Compound: COc1cc(C=O)ccc1O [Vanillin]
- % Inhibition Retinal Reductase [3]: 6%

Compound: COCAMIDE DEA
- FOLD INCREASE IN RATE OF RETINOL LOSS [1]: 1.9 fold

Compound: DAMASCONE
- FOLD INCREASE IN RATE OF RETINOL LOSS [1]: 3.7 fold

Compound: Phosphatidyl Choline
- % Increase Retinol Dehydrogenase [9]: 21% increase

Compound: Sphingomyelin
- % Increase Retinol Dehydrogenase [9]: 26% increase

Reference: patent US20020143059A1, “Skin care product containing retinoids, retinoid booster and phytoestrogens in a dual compartment package” (priority 2000, published 2002)
